According to article PMC5564600 (Oncotarget, 2017):

How the values were obtained:
Experiment in all cases: biochemical
Assay type in all cases: binding
panel of 442 kinases [1] = molecular target: T1, panel of 442 kinases (Homo sapiens, UniProt O14965); details: AURKA; for remaining activity at 1 µM: read-out: % of control at 1 µM
T1 construct: purchased Ambit Biosciences (scanMAXX KINOMEscan)
T1 sequence (O14965 1-403): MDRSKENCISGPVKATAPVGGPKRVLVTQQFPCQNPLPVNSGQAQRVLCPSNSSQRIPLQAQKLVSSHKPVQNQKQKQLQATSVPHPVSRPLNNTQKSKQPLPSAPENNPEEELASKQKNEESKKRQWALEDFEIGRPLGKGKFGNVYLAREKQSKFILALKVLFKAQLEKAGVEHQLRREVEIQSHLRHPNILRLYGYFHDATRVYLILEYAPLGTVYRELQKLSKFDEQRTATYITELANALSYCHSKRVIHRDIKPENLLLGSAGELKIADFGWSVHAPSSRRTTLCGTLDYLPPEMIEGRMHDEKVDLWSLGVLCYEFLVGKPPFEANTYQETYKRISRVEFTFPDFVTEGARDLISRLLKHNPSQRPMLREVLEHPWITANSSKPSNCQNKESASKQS

panel of 442 kinases [2] = molecular target: T2, panel of 442 kinases (Homo sapiens, UniProt P00533, G719C); details: EGFR(G719C); for remaining activity at 1 µM: read-out: % of control at 1 µM
T2 construct: purchased Ambit Biosciences (scanMAXX KINOMEscan)

panel of 442 kinases [3] = molecular target: T3, panel of 442 kinases (Homo sapiens, UniProt P00533, L861Q); details: EGFR(L861Q); for remaining activity at 1 µM: read-out: % of control at 1 µM
T3 construct: purchased Ambit Biosciences (scanMAXX KINOMEscan)
T3 sequence (P00533 25-1210 L861Q): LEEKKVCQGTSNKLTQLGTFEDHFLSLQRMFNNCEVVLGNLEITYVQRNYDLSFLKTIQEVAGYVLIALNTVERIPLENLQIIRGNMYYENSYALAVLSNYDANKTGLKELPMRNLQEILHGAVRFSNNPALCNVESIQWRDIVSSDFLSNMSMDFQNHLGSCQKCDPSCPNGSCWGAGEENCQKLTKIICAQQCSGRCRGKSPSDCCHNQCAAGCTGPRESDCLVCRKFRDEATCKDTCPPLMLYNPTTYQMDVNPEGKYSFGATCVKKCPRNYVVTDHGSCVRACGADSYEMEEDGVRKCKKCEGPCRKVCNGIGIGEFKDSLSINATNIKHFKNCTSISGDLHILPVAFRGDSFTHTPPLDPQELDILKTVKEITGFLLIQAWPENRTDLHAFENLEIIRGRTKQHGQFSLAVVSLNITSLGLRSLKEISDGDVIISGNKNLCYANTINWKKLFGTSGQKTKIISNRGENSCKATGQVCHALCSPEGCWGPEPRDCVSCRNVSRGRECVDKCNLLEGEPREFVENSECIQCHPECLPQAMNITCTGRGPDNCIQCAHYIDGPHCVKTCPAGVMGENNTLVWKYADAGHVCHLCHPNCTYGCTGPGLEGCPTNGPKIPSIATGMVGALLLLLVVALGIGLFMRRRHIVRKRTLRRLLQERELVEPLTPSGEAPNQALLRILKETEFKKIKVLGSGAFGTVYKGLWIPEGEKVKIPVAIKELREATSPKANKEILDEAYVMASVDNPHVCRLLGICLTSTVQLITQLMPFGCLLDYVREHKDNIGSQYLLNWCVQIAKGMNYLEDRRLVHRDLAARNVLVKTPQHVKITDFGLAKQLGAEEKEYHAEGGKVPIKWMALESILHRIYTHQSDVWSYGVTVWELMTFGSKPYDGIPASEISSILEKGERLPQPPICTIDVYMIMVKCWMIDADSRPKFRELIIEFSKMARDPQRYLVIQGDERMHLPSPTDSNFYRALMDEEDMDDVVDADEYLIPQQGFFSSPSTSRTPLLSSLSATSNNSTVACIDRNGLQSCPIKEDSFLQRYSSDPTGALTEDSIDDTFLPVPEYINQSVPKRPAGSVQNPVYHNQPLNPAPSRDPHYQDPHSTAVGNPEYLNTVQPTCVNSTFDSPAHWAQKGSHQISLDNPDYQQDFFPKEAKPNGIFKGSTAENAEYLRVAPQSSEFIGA

panel of 442 kinases [4] = molecular target: T4, panel of 442 kinases (Homo sapiens, UniProt Q09013); details: DMPK; for remaining activity at 1 µM: read-out: % of control at 1 µM
T4 construct: purchased Ambit Biosciences (scanMAXX KINOMEscan)
T4 sequence (Q09013 1-629): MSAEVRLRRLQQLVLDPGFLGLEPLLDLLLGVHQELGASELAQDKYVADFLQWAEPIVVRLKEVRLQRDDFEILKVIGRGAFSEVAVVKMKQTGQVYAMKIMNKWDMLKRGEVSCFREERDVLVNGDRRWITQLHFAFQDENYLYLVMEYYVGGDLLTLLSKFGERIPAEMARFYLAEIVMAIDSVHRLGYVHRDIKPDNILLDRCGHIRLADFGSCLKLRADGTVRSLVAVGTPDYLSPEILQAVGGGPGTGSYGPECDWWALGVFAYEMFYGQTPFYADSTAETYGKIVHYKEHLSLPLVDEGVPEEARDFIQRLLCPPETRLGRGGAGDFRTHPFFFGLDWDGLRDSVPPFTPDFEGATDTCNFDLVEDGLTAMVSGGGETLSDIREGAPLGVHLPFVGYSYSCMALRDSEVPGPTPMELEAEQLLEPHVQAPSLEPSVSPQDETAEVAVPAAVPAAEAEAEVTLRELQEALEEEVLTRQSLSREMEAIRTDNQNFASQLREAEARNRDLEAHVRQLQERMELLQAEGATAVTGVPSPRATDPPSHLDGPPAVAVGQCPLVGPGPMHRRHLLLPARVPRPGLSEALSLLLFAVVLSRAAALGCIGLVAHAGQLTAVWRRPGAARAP

panel of 442 kinases [5] = molecular target: T5, panel of 442 kinases (Homo sapiens, UniProt Q14289); details: kinase PYK2; for remaining activity at 1 µM: read-out: PYK2 (% of control at 1 µM)
T5 construct: purchased Ambit Biosciences (scanMAXX KINOMEscan)
T5 sequence (Q14289 whole entry): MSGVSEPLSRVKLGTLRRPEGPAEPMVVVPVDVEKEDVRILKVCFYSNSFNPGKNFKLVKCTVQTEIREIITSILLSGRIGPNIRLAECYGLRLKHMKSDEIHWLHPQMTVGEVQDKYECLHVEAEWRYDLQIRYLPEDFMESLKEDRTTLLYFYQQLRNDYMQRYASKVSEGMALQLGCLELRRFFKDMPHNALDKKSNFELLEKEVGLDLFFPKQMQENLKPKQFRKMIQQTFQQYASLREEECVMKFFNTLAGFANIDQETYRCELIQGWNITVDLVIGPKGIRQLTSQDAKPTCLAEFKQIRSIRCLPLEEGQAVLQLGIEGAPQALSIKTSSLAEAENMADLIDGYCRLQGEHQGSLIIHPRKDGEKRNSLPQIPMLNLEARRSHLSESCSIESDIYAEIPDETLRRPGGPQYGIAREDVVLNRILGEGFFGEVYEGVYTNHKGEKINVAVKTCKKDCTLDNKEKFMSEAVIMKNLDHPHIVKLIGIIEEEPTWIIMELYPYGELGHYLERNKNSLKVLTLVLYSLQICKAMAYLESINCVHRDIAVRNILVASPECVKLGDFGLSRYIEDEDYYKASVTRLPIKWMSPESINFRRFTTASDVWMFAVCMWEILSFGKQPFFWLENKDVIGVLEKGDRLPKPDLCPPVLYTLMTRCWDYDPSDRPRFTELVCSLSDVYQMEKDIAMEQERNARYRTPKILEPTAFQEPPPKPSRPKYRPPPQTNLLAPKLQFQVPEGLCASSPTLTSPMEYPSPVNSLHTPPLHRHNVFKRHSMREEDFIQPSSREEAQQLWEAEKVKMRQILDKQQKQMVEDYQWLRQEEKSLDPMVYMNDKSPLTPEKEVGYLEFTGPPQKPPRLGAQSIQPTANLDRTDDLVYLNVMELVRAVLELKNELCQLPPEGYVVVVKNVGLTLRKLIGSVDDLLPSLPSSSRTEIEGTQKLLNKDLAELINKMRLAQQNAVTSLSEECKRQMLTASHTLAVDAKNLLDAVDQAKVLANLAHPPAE

panel of 442 kinases [6] = molecular target: T6, panel of 442 kinases (Homo sapiens, UniProt Q8WXR4); details: kinase MYO3B; for remaining activity at 1 µM: read-out: % of control at 1 µM
T6 construct: purchased Ambit Biosciences (scanMAXX KINOMEscan)
T6 sequence (Q8WXR4 1-1341): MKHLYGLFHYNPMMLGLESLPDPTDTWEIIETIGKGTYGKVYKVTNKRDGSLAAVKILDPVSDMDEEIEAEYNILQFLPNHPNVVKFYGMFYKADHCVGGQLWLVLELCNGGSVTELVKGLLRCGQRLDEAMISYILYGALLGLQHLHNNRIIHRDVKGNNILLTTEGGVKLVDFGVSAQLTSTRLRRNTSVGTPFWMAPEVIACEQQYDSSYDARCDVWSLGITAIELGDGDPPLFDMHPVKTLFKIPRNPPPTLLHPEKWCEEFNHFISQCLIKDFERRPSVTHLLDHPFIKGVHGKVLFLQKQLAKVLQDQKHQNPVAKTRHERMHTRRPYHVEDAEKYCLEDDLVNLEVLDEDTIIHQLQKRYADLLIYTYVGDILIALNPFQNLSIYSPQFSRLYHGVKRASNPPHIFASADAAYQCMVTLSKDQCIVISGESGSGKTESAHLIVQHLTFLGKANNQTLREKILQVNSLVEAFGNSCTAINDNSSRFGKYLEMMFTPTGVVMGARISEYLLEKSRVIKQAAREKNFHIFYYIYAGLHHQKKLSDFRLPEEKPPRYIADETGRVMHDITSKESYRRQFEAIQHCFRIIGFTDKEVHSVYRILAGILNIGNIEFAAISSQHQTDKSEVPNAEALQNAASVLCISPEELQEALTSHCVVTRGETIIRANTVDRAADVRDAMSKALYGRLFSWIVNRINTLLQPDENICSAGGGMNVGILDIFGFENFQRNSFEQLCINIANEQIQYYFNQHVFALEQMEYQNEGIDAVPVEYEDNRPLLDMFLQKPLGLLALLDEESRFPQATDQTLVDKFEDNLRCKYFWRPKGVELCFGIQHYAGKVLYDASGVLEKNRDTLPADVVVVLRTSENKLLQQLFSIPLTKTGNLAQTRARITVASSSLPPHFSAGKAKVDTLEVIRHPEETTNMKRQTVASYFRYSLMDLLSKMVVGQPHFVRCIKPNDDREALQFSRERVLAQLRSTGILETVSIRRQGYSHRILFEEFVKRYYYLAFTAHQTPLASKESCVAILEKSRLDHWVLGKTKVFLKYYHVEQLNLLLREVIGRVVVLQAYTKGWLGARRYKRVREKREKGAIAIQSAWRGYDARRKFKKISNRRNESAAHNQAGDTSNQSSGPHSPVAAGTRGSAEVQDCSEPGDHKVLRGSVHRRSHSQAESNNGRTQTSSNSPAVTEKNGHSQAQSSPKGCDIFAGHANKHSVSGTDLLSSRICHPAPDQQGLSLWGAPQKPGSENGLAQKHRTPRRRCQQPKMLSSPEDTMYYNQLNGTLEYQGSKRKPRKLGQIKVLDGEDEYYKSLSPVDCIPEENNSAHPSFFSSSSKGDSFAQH

panel of 442 kinases [7] = molecular target: T7, panel of 442 kinases (Homo sapiens, UniProt Q9P289); details: kinase MST4; for remaining activity at 1 µM: read-out: % of control at 1 µM
T7 construct: purchased Ambit Biosciences (scanMAXX KINOMEscan)
T7 sequence (Q9P289 whole entry): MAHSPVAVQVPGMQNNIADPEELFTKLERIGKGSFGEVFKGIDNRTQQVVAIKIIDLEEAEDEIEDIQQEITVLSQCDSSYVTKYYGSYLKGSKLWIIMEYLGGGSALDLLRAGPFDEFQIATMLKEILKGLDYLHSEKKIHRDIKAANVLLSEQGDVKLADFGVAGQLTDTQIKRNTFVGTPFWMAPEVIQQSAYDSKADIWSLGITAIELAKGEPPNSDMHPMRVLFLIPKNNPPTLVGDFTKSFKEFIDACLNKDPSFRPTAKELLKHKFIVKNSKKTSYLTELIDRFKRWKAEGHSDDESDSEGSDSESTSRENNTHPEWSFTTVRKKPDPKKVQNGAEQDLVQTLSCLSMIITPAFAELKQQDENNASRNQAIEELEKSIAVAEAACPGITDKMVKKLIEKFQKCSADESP

panel of 442 kinases [8] = molecular target: T8, panel of 442 kinases (Homo sapiens, UniProt Q9Y6R4); details: kinase MAP3K4; for remaining activity at 1 µM: read-out: % of control at 1 µM
T8 construct: purchased Ambit Biosciences (scanMAXX KINOMEscan)
T8 sequence (Q9Y6R4 whole entry): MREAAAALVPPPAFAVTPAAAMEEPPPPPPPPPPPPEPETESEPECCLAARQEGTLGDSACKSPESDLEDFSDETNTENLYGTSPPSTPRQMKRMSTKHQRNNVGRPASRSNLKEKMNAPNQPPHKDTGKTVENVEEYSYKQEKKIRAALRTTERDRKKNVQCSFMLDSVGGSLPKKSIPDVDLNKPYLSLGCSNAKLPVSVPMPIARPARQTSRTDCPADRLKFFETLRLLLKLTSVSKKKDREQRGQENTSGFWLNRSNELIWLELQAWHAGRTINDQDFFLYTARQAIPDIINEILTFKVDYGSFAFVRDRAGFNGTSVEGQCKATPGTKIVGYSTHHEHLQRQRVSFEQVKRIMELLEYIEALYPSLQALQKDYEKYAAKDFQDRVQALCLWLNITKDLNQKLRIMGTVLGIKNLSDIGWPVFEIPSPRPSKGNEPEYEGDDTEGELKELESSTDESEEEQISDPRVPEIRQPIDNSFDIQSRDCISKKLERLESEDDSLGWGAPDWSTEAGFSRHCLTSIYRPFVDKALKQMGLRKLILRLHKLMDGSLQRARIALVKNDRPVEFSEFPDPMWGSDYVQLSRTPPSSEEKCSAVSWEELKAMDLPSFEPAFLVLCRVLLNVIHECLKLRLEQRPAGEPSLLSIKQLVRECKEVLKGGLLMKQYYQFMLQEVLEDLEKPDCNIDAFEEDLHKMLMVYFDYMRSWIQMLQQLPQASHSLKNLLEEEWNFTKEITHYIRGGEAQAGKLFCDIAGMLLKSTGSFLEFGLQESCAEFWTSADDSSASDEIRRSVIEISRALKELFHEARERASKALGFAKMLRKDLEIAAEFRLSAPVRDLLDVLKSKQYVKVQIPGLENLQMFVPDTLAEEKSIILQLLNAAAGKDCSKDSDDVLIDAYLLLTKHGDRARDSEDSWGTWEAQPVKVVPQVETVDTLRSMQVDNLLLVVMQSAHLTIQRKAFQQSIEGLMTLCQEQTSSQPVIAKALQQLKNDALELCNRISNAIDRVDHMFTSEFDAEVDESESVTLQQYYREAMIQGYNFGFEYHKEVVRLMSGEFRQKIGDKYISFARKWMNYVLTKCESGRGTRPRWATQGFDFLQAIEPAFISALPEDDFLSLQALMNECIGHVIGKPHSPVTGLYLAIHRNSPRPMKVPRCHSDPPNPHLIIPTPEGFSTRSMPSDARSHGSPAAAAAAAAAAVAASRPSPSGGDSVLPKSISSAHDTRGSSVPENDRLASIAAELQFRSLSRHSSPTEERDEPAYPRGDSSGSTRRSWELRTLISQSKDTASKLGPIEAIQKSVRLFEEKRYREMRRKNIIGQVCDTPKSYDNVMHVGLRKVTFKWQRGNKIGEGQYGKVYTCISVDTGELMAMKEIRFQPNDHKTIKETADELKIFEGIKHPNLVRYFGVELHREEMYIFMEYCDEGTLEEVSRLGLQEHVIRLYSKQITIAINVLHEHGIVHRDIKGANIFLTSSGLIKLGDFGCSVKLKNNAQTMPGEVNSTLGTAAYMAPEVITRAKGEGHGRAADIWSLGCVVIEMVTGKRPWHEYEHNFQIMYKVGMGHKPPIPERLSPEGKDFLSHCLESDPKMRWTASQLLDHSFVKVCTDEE

[9] = 10 µM, read-out: % of control at 10 µM

Row | SMILES | remaining activity at 1 µM (panel of 442 kinases [1]) [%] | remaining activity at 10 µM (panel of 442 kinases [1]; [9]) [%] | remaining activity at 1 µM (panel of 442 kinases [2]) [%] | remaining activity at 10 µM (panel of 442 kinases [2]; [9]) [%] | remaining activity at 1 µM (panel of 442 kinases [3]) [%] | remaining activity at 10 µM (panel of 442 kinases [3]; [9]) [%] | remaining activity at 1 µM (panel of 442 kinases [4]) [%] | remaining activity at 10 µM (panel of 442 kinases [4]; [9]) [%] | remaining activity at 1 µM (panel of 442 kinases [5]) [%] | remaining activity at 10 µM (panel of 442 kinases [5]; 10 µM, read-out: PYK2 (% of control at 10 µM)) [%] | remaining activity at 1 µM (panel of 442 kinases [6]) [%] | remaining activity at 10 µM (panel of 442 kinases [6]; [9]) [%] | remaining activity at 1 µM (panel of 442 kinases [7]) [%] | remaining activity at 10 µM (panel of 442 kinases [7]; [9]) [%] | remaining activity at 1 µM (panel of 442 kinases [8]) [%] | remaining activity at 10 µM (panel of 442 kinases [8]; [9]) [%]
1 | Nc1cc(C(F)(F)F)c(-c2cc(N3CCOCC3)nc(N3CCOCC3)n2)cn1 [Buparlisib] | 100 | 91 | 84 | 83 | 88 | 83 | 79 | 83 | 100 | 100 | 51 | 73 | 100 | 74 | 92 | 100
2 | COc1ncc(-c2ccc3nccc(-c4ccnnc4)c3c2)cc1NS(=O)(=O)c1ccc(F)cc1F [Omipalisib] | 100 |  | 100 |  | 100 |  | 100 |  | 100 |  | 91 |  | 91 |  | 100 | 
3 | FC(F)c1nc2ccccc2n1-c1nc(N2CCOCC2)nc(N2CCOCC2)n1 [ZSTK474, 2-(difluoromethyl)-1-[4,6-di(4-morpholinyl)-1,3,5-triazin-2-yl]-1H-benzimidazole] | 100 |  | 97 |  | 100 |  | 100 |  | 100 |  | 64 |  | 68 |  | 97 | 
4 | Cn1c(=O)n(-c2ccc(C(C)(C)C#N)cc2)c2c3cc(-c4cnc5ccccc5c4)ccc3ncc21 [Dactolisib, 2-methyl-2-[4-(3-methyl-2-oxo-8-quinolin-3-yl-2,3-dihydroimidazo[4,5-c]quinolin-1-yl)-phenyl] propionitrile] | 100 |  |  |  |  |  | 88 |  | 86 |  | 81 |  | 76 |  | 96 | 
